Assay results published in patent publication US20250172543A1, “HIGH DENSITY 3D HEPATOCYTE SPHEROID PLATFORM FOR DRUG ADME STUDIES” (Discovery Life Sciences, LLC, priority 2018, published 2025).
Where two headings read alike, the source gives them in different places.

Tests used:
[1] = test system: 3D primary human hepatocyte (PHH) high density spheroids; experiment: 3D PHH high density spheroid drug clearance assay; assay type: in vitro ADME; conditions: 0.1 μM substrate, 6-well spheroid insert, in vivo hepatic clearance predicted from in vitro Clint by well stirred model
Method: Plating PHHs onto 6-well high density spheroid insert (−700 microwells/insert): PHH were thawed as standard procedure and resuspended in WEM plating medium. PHH cells were counted and the cell density was adjusted to 0.35e6/ml using WEM plating medium. For plating PHHs, the pipet aid was set at low disperse speed. Right before plating, a 5 mL pipet was used to remove most medium from pre-wetted inserts. Even cell suspensions were prepared by gently pipetting up and down. Using a 5 mL pipet, with the position the tip against the side wall at the bottom, 2 mL of cell suspension (700K cells, -1000 cells/microwell) was added to a 6-well spheroid insert. The plate was allowed to sit for 15-20 min in the hood. The plates were checked under a microscope with a 4x objective, to ensure that that a similar number of cells have settled into each microwell.
Half medium change with WME+medium: The pipet aid was at low disperse speed. Using a 5 mL pipet, 1 mL of old medium was slowly from each insert. A 1000 μL pipet tip was positioned against the top part of the insert sidewall, and 1 mL pre-warmed WME+medium was slowly added with the medium being allowed to flow down the sidewall. After waiting 5-10 minutes between each half medium change, the half medium change was repeated 3 more times. The PHHs were checked under a microscope for spheroid formation.
Incubate the candidate compound(s) to be tested for clearance with the cultured spheroids: The pipet aid was set at low disperse speed. Using a 5 mL pipet, 1 mL of old medium was slowly removed from each insert. […] After 5-10 minutes, the culture was placed back to 37° C. incubator. The timer for incubation was started at this point.
Sampling: 40 μL/well stop solutions Labetalol (0.2 uM IN 0.05% FA/50%ACN) was aliquoted in an assay plate and kept on ice. At the desired assay incubation time (0 hr, 1 hr, 2 hrs, 4 hrs, 6 hrs, 12 hrs, 24 hrs, 36 hrs, 48 hrs, 3 days, 4 days, 5 days, 6 days, 7 days, 8 days, 9 days, 10 days, 11 days, 12 days, 13 days 14 days, 3 weeks, 4 weeks, or any value or range there between), 40 μL sample were drawn from each incubation well, mixed well with stop solution, and stored at −80° C.
LC/MS analysis: The amount of the candidate compound was measured using liquid chromatography/mass spectrometry, as is known in the art.
Calculate the elimination rate constant (ke1): The percentage of the candidate compound remaining in the culture was calculated by dividing the mass spectrometry peak area ratio at certain incubation times to that at time zero, as is known in the art. The natural logarithm of the percentage of the remaining candidate compound was plotted against time, and the kelwas calculated as the absolute value from the slope.
Calculate the depletion half-lives of the candidate compounds: Once the kel was determined for the candidate compound, the depletion half-life of the candidate compound was determined by Equation 1, as is known in the art.
Calculate the;n vitro clearance (Clint) of the candidate compound: The in vitro clearance of the candidate compounds was calculated using the in vitro half-lives from Equation 1 using the scaling factors of Equation 2, as is known in the art.
Calculate predicted in vivo hepatic clearance (CLh): The in vivo hepatic clearance was calculated from the in vitro clearance determined by Equation 2 using the well stirred model Equation 3, as is known in the art.

[2] = actual in vivo clearance for comparison; cited from earlier work
[3] = test system: PHHs grown in suspension format; experiment: Clearance measurement with PHHs grown in suspension format; conditions: FIGS. 8A-I
[4] = test system: PHHs grown in suspension format; conditions: human

## Cc1nnc2n1-c1ccc(Cl)cc1C(c1ccccc1)=NC2 [Alprazolam]
[1]
  Predicted CLh, 3D HD Spheroids: 0.45
[2]
  In Vivo CLnonrenal: 0.61
[3]
  Measurability of clearance in suspension hepatocytes: unable to measure

## CN1C(=O)CN=C(c2ccccc2)c2cc(Cl)ccc21 [Diazepam]
[2]
  In Vivo CLnonrenal: 0.53

## CCC1=C(C)CN(C(=O)NCCc2ccc(S(=O)(=O)NC(=O)N[C@H]3CC[C@H](C)CC3)cc2)C1=O [Glimepiride]
[1]
  Predicted CLh, 3D HD Spheroids: 0.04
[4]
  Measurability of clearance in suspension hepatocytes: unable to measure
[2]
  In Vivo CLnonrenal: 1.12

## C[C@]12C=CC(=O)C=C1CC[C@@H]1[C@@H]2[C@@H](O)C[C@@]2(C)[C@H]1CC[C@]2(O)C(=O)CO [Prednisolone]
[1]
  Predicted CLh, 3D HD Spheroids: 0.60
[4]
  Measurability of clearance in suspension hepatocytes: unable to measure
[2]
  In Vivo CLnonrenal: 1.44

## CCCCNC(=O)NS(=O)(=O)c1ccc(C)cc1 [Tolbutamide]
[1]
  Predicted CLh, 3D HD Spheroids: 0.22
[4]
  Measurability of clearance in suspension hepatocytes: unable to measure

## CC(=O)CC(c1ccccc1)c1c(O)c2ccccc2oc1=O (centres unmarked) [Warfarin]
[1]
  Predicted CLh, 3D HD Spheroids: 0.01
[4]
  Measurability of clearance in suspension hepatocytes: unable to measure
